Source: patent US9000010B2, “Alkyl-heterocycle carbamate derivatives, their preparation and their therapeutic application” (Sanofi, priority 2010, dated 2015)
Structures can show the parent of a compound that is named as a salt.

Experiments:
[1] = molecular target: T1, FAAH (Fatty Acid Amide Hydrolase) (Mus musculus, UniProt O08914); assay: Radioenzymatic test of FAAH inhibition: hydrolysis of anandamide [ethanolamine 1-3H] by mouse brain membrane homogenates; format: biochemical; settings: mouse brain membrane homogenate; preincubation 20 min at 25° C.; anandamide 10 μM; read-out: CI50 (concentration which inhibits the control enzymatic activity of FAAH by 50%)
T1 construct: The membrane homogenates are prepared at the time of use by homogenization of the tissues; from tissue; host or cells: mouse brain (minus the cerebellum), membrane homogenate
T1 sequence (O08914 1-579): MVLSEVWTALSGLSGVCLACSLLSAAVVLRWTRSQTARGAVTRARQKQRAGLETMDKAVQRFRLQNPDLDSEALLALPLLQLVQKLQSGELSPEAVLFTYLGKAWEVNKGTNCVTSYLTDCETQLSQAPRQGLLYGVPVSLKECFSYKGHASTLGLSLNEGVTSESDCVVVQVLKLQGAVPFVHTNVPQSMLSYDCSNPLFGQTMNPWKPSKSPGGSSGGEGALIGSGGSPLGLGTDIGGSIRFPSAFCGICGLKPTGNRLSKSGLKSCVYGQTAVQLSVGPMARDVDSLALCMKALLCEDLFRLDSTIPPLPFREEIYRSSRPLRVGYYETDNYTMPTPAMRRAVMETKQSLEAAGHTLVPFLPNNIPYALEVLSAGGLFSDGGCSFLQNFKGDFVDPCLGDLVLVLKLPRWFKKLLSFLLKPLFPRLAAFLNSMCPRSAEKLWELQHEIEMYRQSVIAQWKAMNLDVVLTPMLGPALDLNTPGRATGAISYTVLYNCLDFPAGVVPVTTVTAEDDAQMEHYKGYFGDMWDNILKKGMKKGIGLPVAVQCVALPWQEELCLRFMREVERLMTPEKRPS
Procedure: The compounds of the invention form the subject of pharmacological trials which make it possible to determine their inhibitory effect on the enzyme FAAH (Fatty Acid Amide Hydrolase).
Thus, mouse brains (minus the cerebellum) are removed and stored at −80° C. The membrane homogenates are prepared at the time of use by homogenization of the tissues using a Precellys® device in the reaction buffer (Tris-HCl 10 mM pH=8, NaCl 150 mM and ethylenediaminetetraacetic acid (EDTA) 1 mM). The enzymatic reaction is carried out in 96-well MultiScreen filtration plates in a final volume of 70 μl. Reaction buffer supplemented with bovine serum albumin free from fatty acids (BSA, 1 mg/ml) is used for the enzymatic reaction, the dilution of the compounds and the dilution of the anandamide [ethanolamine 1-^3H]. Reaction buffer comprising the BSA (43 μl/well), the diluted test compounds at different concentrations (7 μl/well comprising 1% of DMSO) and the membrane preparation (10 μl/well, i.e. 200 μg of tissue per trial) are successively added to the wells. After preincubating the compounds with the enzyme at 25° C. for 20 minutes, the reaction is initiated by the addition of anandamide [ethanolamine 1-^3H] (specific activity of 15-20 Ci/mmol) diluted with cold anandamide (10 μl/well, final concentration of 10 μM, 0.01 μCi, per trial). After incubating at 25° C. for 20 minutes, the enzymatic reaction is halted by addition of a […] active charcoal solution prepared in a 1.5M NaCl and 0.5M HCl buffer (50 μl/well). The mixture is stirred for 10 minutes and then the aqueous phase comprising the [1-^3H]ethanolamine is recovered by filtration under vacuum and counted by liquid scintillation.

SMILES | melting point [°C] | IC50 [1] [nM]
O=C(OCc1nccs1)N1CCC(COc2ccc(-c3ccc(F)cc3)cc2)C1 (racemic) [No. 197, Thiazol-2-ylmethyl (+/−)-3-(4′-fluorobiphenyl-4-yloxymethyl)pyrrolidine-1-carboxylate] | 81 to 83 | –
CCCCOc1cccc(OCCC2CCN(C(=O)OCc3cscn3)CC2)c1 [No. 90, Thiazol-4-ylmethyl 4-[2-(3-butoxyphenoxy)ethyl]-piperidine-1-carboxylate] | – | 92
O=C(OCc1cscn1)N1CCC(CCOc2ccc3ccccc3c2)CC1 [No. 15, Thiazol-4-ylmethyl 4-[2-(naphth-2-yloxy)ethyl]-piperidine-1-carboxylate] | 88 to 90 | –
O=C(OCc1cncs1)N1CCC(CCOc2ccc(C(F)(F)F)cc2)CC1 [No. 8, Thiazol-5-ylmethyl 4-[2-(4-{trifluoromethyl}phenoxy)-ethyl]piperidine-1-carboxylate] | 47 to 49 | –
O=C(OCc1nccs1)N1CCC(CCOc2ccccc2-c2nc3ccccc3o2)CC1 [No. 39, Thiazol-2-ylmethyl 4-[2-(2-{benzoxazol-2-yl}-phenoxy)ethyl]piperidine-1-carboxylate] | – | 13
COc1ccc2cc(OCC3CCN(C(=O)OCc4cc(C(N)=O)no4)C3)ccc2c1 (racemic) [No. 201, 3-Carbamoylisoxazol-5-ylmethyl (+/−)-3-(6-methoxynaphth-2-yloxymethyl)pyrrolidine-1-carboxylate] | 193 to 195 | –
COc1ccc2cc(OCCC3CCN(C(=O)OCc4cscn4)CC3)ccc2c1 [No. 14, Thiazol-4-ylmethyl 4-[2-(6-methoxynaphth-2-yloxy)-ethyl]piperidine-1-carboxylate] | 100 to 102 | –
O=C(OCc1cncs1)N1CCC(CCOc2ccc(Cl)cc2)CC1 [No. 7, Thiazol-5-ylmethyl 4-[2-(4-chlorophenoxy)ethyl]-piperidine-1-carboxylate] | 93 to 97 | –
O=C(OCc1cscn1)N1CCC(CCOc2ccc(Cl)cc2)CC1 [No. 5, Thiazol-4-ylmethyl 4-[2-(4-chlorophenoxy)ethyl]-piperidine-1-carboxylate] | 53 to 55 | –
O=C(OCc1cscn1)N1CCC(COc2cccc(OC(F)(F)F)c2)C1 (racemic) [No. 24, Thiazol-4-ylmethyl (+/−)-3-(3-{trifluoromethoxy}-phenoxymethyl)pyrrolidine-1-carboxylate] | 54 to 56 | –
O=C(OCc1cscn1)N1CCC(COc2ccc3cnccc3c2)C1 (racemic) [No. 27, Thiazol-4-ylmethyl (+/−)-3-(isoquinolin-6-yloxymethyl)pyrrolidine-1-carboxylate] | 122 to 124 | –
O=C(OCc1cscn1)N1CCC(CCOc2ccc3ncccc3c2)CC1 (as salt: HCl) [No. 19, Thiazol-4-ylmethyl 4-[2-(quinolin-6-yloxy)ethyl]-piperidine-1-carboxylate] | 140 to 150 | –
COc1ccc2cc(OCC3CCN(C(=O)OCc4cscn4)C3)ccc2c1 (racemic) [No. 11, Thiazol-4-ylmethyl (+/−)-3-(6-methoxynaphth-2-yloxymethyl)pyrrolidine-1-carboxylate] | 128 to 130 | –
N#Cc1ccc(OCCC2CCN(C(=O)OCc3cscn3)CC2)cc1 [No. 10, Thiazol-4-ylmethyl 4-[2-(4-cyanophenoxy)ethyl]-piperidine-1-carboxylate] | 108 to 110 | –

The remaining lines, values ahead:

melting point [°C] | IC50 [1] [nM] | SMILES
94 to 96 | – | O=C(OCc1cscn1)N1CCC(COc2ccc3cccnc3c2)C1 (racemic) [No. 28, Thiazol-4-ylmethyl (+/−)-3-(quinolin-7-yloxymethyl)-pyrrolidine-1-carboxylate]
78 to 80 | – | O=C(OCc1cscn1)N1CCC(COc2ccc(Cl)c(Cl)c2)C1 (racemic) [No. 13, Thiazol-4-ylmethyl (+/−)-3-(3,4-dichlorophenoxymethyl)pyrrolidine-1-carboxylate]
62 to 64 | – | O=C(OCc1cscn1)N1CCC(CCOc2ccc(-c3ccc(F)cc3)cc2)CC1 [No. 18, Thiazol-4-ylmethyl 4-[2-(4′-fluorobiphenyl-4-yloxy)-ethyl]piperidine-1-carboxylate]
115 to 117 | – | O=C(OCc1cscn1)N1CCC(COc2ccc(-c3ccc(F)cc3)cc2)C1 (racemic) [No. 22, Thiazol-4-ylmethyl 3-(4′-fluorobiphenyl-4-yloxymethyl)-pyrrolidine-1-carboxylate]
60 to 62 | – | O=C(OCc1cscn1)N1CCC(COc2ccc(Cl)c(C(F)(F)F)c2)C1 (racemic) [No. 30, Thiazol-4-ylmethyl (+/−)-3-(4-chloro-3-{trifluoromethyl}phenoxymethyl)pyrrolidine-1-carboxylate]
76 to 78 | – | CC(C)(c1ccccc1)c1ccc(OCC2CCN(C(=O)OCc3cscn3)C2)cc1 (racemic) [No. 25, Thiazol-4-ylmethyl (+/−)-3-[4-(1-methyl-1-phenyl-ethyl)phenoxymethyl]pyrrolidine-1-carboxylate]
112 to 114 | – | O=C(OCc1nccs1)N1CC[C@H](COc2ccc3ccccc3c2)C1 (single isomer, unassigned) [No. 195]
90 to 92 | – | O=C(OCc1cscn1)N1CCC(COc2ccc3ccccc3c2)C1 (racemic) [No. 17, Thiazol-4-ylmethyl 3-(naphth-2-yloxymethyl)pyrrolidine-1-carboxylate]
– | 14 | O=C(OCc1nccs1)N1CCC(CCOc2ccc(C3CCCC3)cc2)CC1 [No. 38, Thiazol-2-ylmethyl 4-[2-(4-cyclopentylphenoxy)-ethyl]piperidine-1-carboxylate]
150 to 160 | – | O=C(OCc1cscn1)N1CCC(CCOc2ccc3cnccc3c2)CC1 (as salt: HCl) [No. 20, Thiazol-4-ylmethyl 4-[2-(isoquinolin-6-yloxy)ethyl]-piperidine-1-carboxylate]
121 to 123 | – | O=C(OCc1cscn1)N1CCC(COc2ccc3ccncc3c2)C1 (racemic) [No. 29, Thiazol-4-ylmethyl (+/−)-3-(isoquinolin-7-yloxymethyl)pyrrolidine-1-carboxylate]
96 to 98 | – | O=C(OCc1cncs1)N1CCC(CCOc2ccc(F)cc2)CC1 [No. 6, Thiazol-5-ylmethyl 4-[2-(4-fluorophenoxy)ethyl]-piperidine-1-carboxylate]
106 to 108 | – | NC(=O)c1cc(COC(=O)N2CCC(CCOc3ccc(F)cc3)CC2)on1 [No. 198, 3-Carbamoylisoxazol-5-ylmethyl 4-[2-(4-fluorophenoxy)ethyl]piperidine-1-carboxylate]
84 to 86 | – | O=C(OCc1cscn1)N1CCC(COc2ccc(Cl)c3ccccc23)C1 (racemic) [No. 16, Thiazol-4-ylmethyl (+/−)-3-(4-chloronaphth-1-yloxymethyl)pyrrolidine-1-carboxylate]
– | 19 | O=C(OCc1nccs1)N1CCC(CCOc2ccc(Cc3ccccc3)cc2)CC1 [No. 49, Thiazol-2-ylmethyl 4-[2-(4-benzylphenoxy)ethyl]-piperidine-1-carboxylate]
95 to 97 | – | COc1ccc2ccc(OCCC3CCN(C(=O)OCc4cscn4)CC3)cc2c1 [No. 9, Thiazol-4-ylmethyl 4-[2-(7-methoxynaphth-2-yloxy)ethyl]-piperidine-1-carboxylate]
100 to 112 | – | O=C(OCc1nccs1)N1CC[C@@H](COc2ccc3ccccc3c2)C1 (single isomer, unassigned) [No. 194]
76 to 78 | – | O=C(OCc1cscn1)N1CCC(COc2ccc3c(F)cccc3c2)C1 (racemic) [No. 31, Thiazol-4-ylmethyl (+/−)-3-(5-fluoronaphth-2-yloxymethyl)pyrrolidine-1-carboxylate]
89 to 91 | – | O=C(OCc1cscn1)N1CCC(COc2ccc3c(Cl)cccc3c2)C1 (racemic) [No. 23, Thiazol-4-ylmethyl (+/−)-3-(5-chloronaphth-2-yloxymethyl)pyrrolidine-1-carboxylate]
